Laboratory results published in patent US6656905B1, “Cyclic tetrapeptide compound and use thereof” (Fujisawa Pharmaceutical Co., Ltd., priority 1998, dated 2003).

Assays:
[1] = test system: partially purified human histone deacetylase; test: Activity of partially purified human histone deacetylase ([3H]acetyl histone assay); type: biochemical; details: for Effect on histone deacetylase activity (in words): summary of Table 5
Description: Effect on Activity of Partially Purified Human Histone Deacetylase
The partial purification of human histone deacetylase, the preparation of [^3H] acetyl histones, and the assay for histone deacetylase activity were basically performed according to the method as proposed by Yoshida et al. as follows.
Partial Purification of Human Histone Deacetylase—The human histone deacetylase was partially purified from human T cell leukemia Jurkat cells. Jurkat cells (5×10^8cells) were suspended in 40 ml of the HDA buffer consisting of 15 mM potassium phosphate, pH 7.5, 5% glycerol and 0.2 mM EDTA. After homogenization, nuclei were collected by centrifugation (35,000 ×g, 10 min) and homogenized in 20 ml of the same buffer supplemented with 1 M (NH4)2SO4. The viscous homogenate was sonicated and clarified by centrifugation (35,000 ×g, 10 min), and the deacetylase was precipitated by raising the concentration of (NH4)2SO4 to 3.5 M. The precipitated protein was dissolved in 10 ml of the HDA buffer and dialyzed against 4 liters of the same buffer. The dialyzate was then loaded onto a DEAE-cellulose (Whatman DE52) column (25×85 mm) equilibrated with the same buffer and eluted with a linear gradient (0-0.6 M) of NaCl (300 ml). A single peak fraction of histone deacetylase activity was eluted between 0.3 and 0.4 M NaCl.
Preparation of [^3H] Acetyl Histones—To obtain [^3H]acetyl-labeled histones as the substrate for the histone deacetylase assay, 1×10^8 cells of Jurkat in 20 ml of RPMI-1640 medium supplemented with 10% FBS, penicillin (50 units/ml) and streptomycin (50 μg/ml) were incubated with 300 MBq [^3H] sodium acetate in the presence of […] sodium butyrate for 30 min in 5% CO2-95% air atmosphere at 37° C. in a 75 cm2 flask, harvested into a centrifuge tube (50 ml), collected by centrifugation at 1000 rpm for 10 min, and washed once with phosphate-buffered saline. The washed cells were suspended in 15 ml of ice-cold lysis buffer (10 mM Tris-HCl, 50 mM sodium bisulfite, 1% Triton X-100, 10 mM MgCl2, 8.6% sucrose, pH 6.5). After Dounce homogenization (30 stroke), the nuclei were collected by centrifugation at 1000 rpm for 10 min, washed three times with 15 ml of the lysis buffer, and once with 15 ml of ice-old washing buffer (10 mM Tris-HCl, 13 mM EDTA, pH 7.4) successively. The pellet was suspended in 6 ml of ice-cold water using a mixer, and […] of H2SO4 was added to the suspension to give a concentration of 0.4 N. After incubation at 4° C. for 1 hour, the suspension was centrifuged for 5 min at 15,000 rpm, and the supernatant was taken and mixed with 60 ml of acetone. After overnight incubation at −20° C., the coagulated material was collected by microcentrifugation, air-dried, and stored at […].
Assay for Histone Deacetylase Activity—For the standard assay, 10 μl of [^3H]acetyl-labeled histones was added to 90 μl of the enzyme fraction, and the mixture was incubated at 25° C. for 30 min. The reaction was stopped by addition of 10 μl of HCl. The released [^3H]acetic acid was extracted with 1 ml of ethyl acetate, and 0.9 ml of the solvent layer was taken into 10 ml of toluene scintillation solution for determination of radioactivity.

[2] = test system: murine lymphocyte blastogenesis induced by anti-CD3 antibody (splenic cells of Balb/c mice); test: Lymphocyte blastogenesis test (MTT dye reduction); type: cell-based; details: for Inhibition (%): 72 hours
Description: Effect on Lymphocyte Blastogenic Response
The lymphocyte blastogenesis test was performed in microtiter plates with each well containing 1×10^5 splenic cells of Balb/c mice in 0.1 ml RPMI-1640 medium supplemented with 10% fetal bovine serum (FBS), […] 2-mercaptoethanol, penicillin (100 units/ml) and streptomycin (100 μg/ml), to which anti-CD3 antibody (2C11) (1 μg/ml) was added. The cells were incubated at 37° C. in a humidified atmosphere of 5% CO2 for 72 hours. After the culture period, suppressive activities of the test samples in lymphocyte blastogenesis were quantified by an MTT [3-(4,5-dimethylthiazol-2-yl)-2,5-diphenyl-2H-tetrazolium bromide (MTT)] dye reduction assay.
WF27082 B was dissolved in methanol and further diluted in RPMI-1640 medium and added to the culture to give final concentrations of 50 ng/ml or less. FR235220 was dissolved in methanol and further diluted in RPMI-1640 medium and added to the culture to give final concentrations of 500 ng/ml or less. The results are shown in Table 2 and Table 3, respectively.

[3] = Solubility in solvents (physico-chemical properties); type: physicochemical; details: solvents in which soluble

Row | SMILES | Inhibition (%) ([1]; 1 ng/ml) | Inhibition (%) ([1]; 10 ng/ml) | Inhibition (%) ([1]; 100 ng/ml) | Inhibition (%) ([1]; 1000 ng/ml) | Effect on histone deacetylase activity (in words) [1] | Inhibition (%) ([2]; 4 ng/ml) | Inhibition (%) ([2]; 8 ng/ml) | Inhibition (%) ([2]; 16 ng/ml) | Inhibition (%) ([2]; 31 ng/ml) | Inhibition (%) ([2]; 63 ng/ml) | Inhibition (%) ([2]; 125 ng/ml) | Inhibition (%) ([2]; 250 ng/ml) | Inhibition (%) ([2]; 500 ng/ml) | Effect on murine lymphocyte blastogenesis (in words) ([2]; summary of Tables 2 and 3) | Solubility: Soluble [3]
1 | CC(O)C(=O)CCCCCC1NC(=O)C2CCCN2C(=O)C(Cc2ccccc2)NC(=O)C(C)(C)NC1=O (centres unmarked) [FR235220] | −13.1 | 33.7 | 74.6 | 94.6 | potently inhibited | −23.4 | −1.3 | 45.1 | 106.0 | 125.3 | 127.2 | 126.0 | 126.0 | suppressed murine lymphocyte blastogenesis induced by anti-CD3 antibody in a dose-dependent manner | –
2 | CCC1(C)NC(=O)C(CCCCCC(=O)C(C)O)NC(=O)C2CCCN2C(=O)C(Cc2ccccc2)NC1=O (centres unmarked) [WF27082 E] | 11.1 | 57.6 | 88.5 | 104.9 | potently inhibited | – | – | – | – | – | – | – | – | – | methanol, chloroform, ethyl acetate, dimethyl sulfoxide
3 | CC1CC2C(=O)NC(CCCCCC(=O)C(C)O)C(=O)NC(C)(C)C(=O)NC(Cc3ccccc3)C(=O)N2C1 (centres unmarked) [WF27082 F] | 11.4 | 36.5 | 74.1 | 91.7 | potently inhibited | – | – | – | – | – | – | – | – | – | methanol, chloroform, ethyl acetate, dimethyl sulfoxide
